Test results taken from the supplement of paper PMC10307832.

Legend:
Assay in all cases: relative viability (nuclei count vs DMSO), 5 days (fraction); higher = more cells survive
[1] = compound: CC(C)(C)c1nc(-c2cccc(NS(=O)(=O)c3c(F)cccc3F)c2F)c(-c2ccnc(N)n2)s1 [Dabrafenib] + C[C@@H](Oc1cc(-c2cnn(C3CCNCC3)c2)cnc1N)c1c(Cl)ccc(F)c1Cl [Crizotinib] (partner 1 µM)
Procedure, shortened: (§1)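 Lung cancer cell lines were pin-tool dosed in 1536-well plates on the day after seeding, with either a lone drug or a fixed anchor-drug dose plus five library-drug doses (not always all listed) in √10 steps. Nuclei were counted on 4× images after 5 days. Relative viability is the ratio of treated-well to vehicle-well nuclei counts, with each value a median of duplicate plates.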

[2] = compound: CC(C)(C)c1nc(-c2cccc(NS(=O)(=O)c3c(F)cccc3F)c2F)c(-c2ccnc(N)n2)s1 [Dabrafenib] + CC(=O)c1c(C)c2cnc(Nc3ccc(N4CCNCC4)cn3)nc2n(C2CCCC2)c1=O [Palbociclib] (partner 0.5 µM)
Procedure, shortened: as §1

[3] = compound: NC(=O)c1ccc(N(C(N)=O)c2c(F)cccc2F)nc1-c1ccc(F)cc1F [VX-702] + CC(C)C[C@H](NC(=O)[C@H](Cc1ccccc1)NC(=O)c1cnccn1)B(O)O [Bortezomib] (partner 0.002 µM)
Procedure, shortened: as §1

[4] = compound: NC(=O)c1ccc(N(C(N)=O)c2c(F)cccc2F)nc1-c1ccc(F)cc1F [VX-702] + O=C(CCCCCCC(=O)Nc1ccccc1)NO [Vorinostat] (partner 1 µM)
Procedure, shortened: as §1

Cell Line	relative viability ([1]; first compound 0.003 µM)	relative viability ([1]; first compound 0.009487 µM)	relative viability ([1]; first compound 0.03 µM)	relative viability ([1]; first compound 0.09487 µM)	relative viability ([1]; first compound 0.3 µM)	relative viability ([2]; first compound 0.003 µM)	relative viability ([2]; first compound 0.009487 µM)	relative viability ([2]; first compound 0.03 µM)	relative viability ([2]; first compound 0.09487 µM)	relative viability ([2]; first compound 0.3 µM)	relative viability ([3]; first compound 0.02 µM)	relative viability ([3]; first compound 0.2 µM)	relative viability ([3]; first compound 0.6325 µM)	relative viability ([3]; first compound 2 µM)	relative viability ([4]; first compound 0.02 µM)	relative viability ([4]; first compound 0.2 µM)	relative viability ([4]; first compound 0.6325 µM)	relative viability ([4]; first compound 2 µM)
201T	1.04	1.01	0.939	1.03	1.03	0.368	0.366	0.368	0.318	0.376	1.13	1.07	1.17	1.17	0.966	0.956	1.09	1
A549	0.805	0.763	0.887	0.737	0.768													
A-427		0.883	0.772	0.87	1.03	0.485	0.537	0.509	0.459	0.533	0.984	0.947	0.988	1.05	0.897	0.869	0.895	1.01
ABC-1		1.11	1.02	0.961	1.34		1.01	0.704	0.607	1.03	0.35		0.26	0.329	1.46	0.922	1.17	1.41
BEN		0.985		0.749	1.09		0.477		0.426	0.448	0.823	0.545	0.658	0.922	0.63	0.559	0.643	0.559
CAL-12T	0.502	0.752	0.728	0.582	0.791	0.461	0.486	0.599	0.388	0.722	1.02	0.928	0.885	1.06	0.688	0.744	0.725	1.04
COR-L23	0.644	0.627	0.633	0.607	0.55	0.25	0.328	0.245	0.275	0.207	1.08	1.02	1.15	1.21	0.511	0.47	0.46	0.491
COR-L 105	0.843	0.987	0.67	0.719	0.851	0.414	0.396	0.398	0.417	0.367	0.957	0.888	0.907	0.54	0.734	0.805	0.795	0.855
Calu-6	0.681	0.833	0.786	0.555	0.577						1.04	1.12	1.24	1.16				
ChaGo-K-1		1.16	1.15	1.03	1.12	0.874	0.925	0.838	0.89	0.996	0.911	0.861	1.06	1.22	0.84	0.7	0.79	0.795
EBC-1		0.193	0.207	0.196	0.245						0.622	0.545	0.587	0.603				
EKVX	0.875	1.12	0.783	0.702	1.01		0.41	0.387	0.383	0.445	1.01	0.738	1.05	1.42	0.823	0.671	0.676	0.696
EMC-BAC-2	0.859	0.749	0.678	0.672	0.828		0.497	0.448	0.427	0.418	1.11	1.04	1.04	1.09	0.477	0.427	0.496	0.427
EPLC-272H		1.17	0.784	0.976	0.83		0.318	0.286	0.366	0.354	0.897	0.836	1.05	0.956	0.401	0.571	0.535	0.438
H3255	0.968	1.19	0.954	0.873	0.906	0.288	0.313	0.343	0.313	0.333	0.716	0.772	1.02	0.917	0.757		0.598	0.866
HARA	0.975	1.04	1.01	0.855	1.11		0.325		0.304	0.338	0.605	1.05	1.17	1.34	0.527	0.51	0.542	0.449
HCC-15	0.906	0.881	0.832	0.75	0.827	0.714	0.779	0.769	0.729	0.78	1.07	0.929	1.09	1.05	0.813	0.803	0.854	0.858
HCC-44	0.769	0.785	0.847	0.718	0.794	1.01	0.956	0.943	0.842	0.983	0.909	0.856	0.845	0.992	1.17	1.09	1.19	1.16
HCC-78		0.403	0.278	0.329	0.362	0.366	0.481	0.414	0.426	0.498	0.314	0.521	0.472	0.506	0.393	0.486	0.427	0.543
HCC-366		0.542	0.436	0.44	0.572	0.434	0.403	0.336	0.354	0.344	1.01	0.969	1.12	0.634	0.402	0.38	0.427	0.133
